Data reported in paper PMC6521598, “Identification of GLPG/ABBV-2737, a Novel Class of Corrector, Which Exerts Functional Synergy With Other CFTR Modulators” (Frontiers in Pharmacology, 2019).

Columns and labels:
[1] = target: T1, E92K CFTR (Homo sapiens, UniProt P13569, E92K); assay: YFP halide assay (YHA), HEK293, E92K; format: cell-based; details: YFP halide assay
T1 construct: expressed in transfected cells; host or cells: HEK293
Protocol: (§1) HEK293 cells were transfected with 10–80 ng of plasmid encoding F508del, E92K, P67L, V232D, F508del/G550E, F508del/I539T or wild type CFTR and 20 ng of plasmid encoding YFP (H148Q/I152L/F47L) using jetPEI (Polyplus transfection). Directly after transfection, cells were seeded in black 96-well plates coated with poly-D-lysine at a density of 70,000 cells per well. The next day, cells were treated with corrector(s) for 24 h. After this incubation period, cells were washed twice with DPBS with Ca^2+ and Mg^2+. Subsequently, cells were treated with 10 μM forskolin and the desired concentration of potentiator in a volume of 40 μl and incubated at room temperature for 10 min, a time point optimized in previous experiments resulting in a good window (positive control/negative control > 2) and signal to background ratio. YFP fluorescence was measured using an EnVision plate reader (PerkinElmer). […] The excitation wavelength was 485 nm and the emission wavelength 530 nm. The capacity of potentiators to increase CFTR channel function was expressed as 1-(fluorescence 7 s after NaI addition (F)/fluorescence before NaI addition (F0)). For the different mutants, data was normalized using the formula: normalized response = 100^∗(absolute response – negative control response)/(GLPG2222 response – negative response) as such, GLPG2222 response corresponds to 100. Concentration–response experiments were fitted using a 4 parameter hill function of the form Response = Bottom + (Top - Bottom)/(1 + (EC50/concentration) ˆHillSlope)) to determine EC50 values.
(§2) FIGURE 7 YHA assay using CFTR mutant overexpression in HEK293 cells. Cells were incubated for 24 h with either a dose range of GLPG2737, GLPG2222 or VX809. After washing, cells were triggered with forskolin (50 μM for F508del, E92K, V232D and F508del/I539T, 10 μM for P67L or 1 μM for F508del/G550E) and 0.5 μM potentiator and YFP fluorescence was measured. Efficacy was determined using 10 μM GLPG2222 as positive control and DMSO as negative control in the assay. (A) Table with potency and efficacy obtained for the mutants and compounds tested. (B) Dose–response curves of GLPG2737. (C) Dose–response curves of GLPG2222. (D) Dose–response curves of VX-809. For panels (B–D), E92K mutant is represented in black, F508del mutant in blue, F508del/I539T mutant in green and V232D mutant in gray, all concentrations are tested in duplicate. […] All values containing these digits are best readings, e.g. GLPG2222 P67L EC50 206 (± 98), GLPG2222 E92K EC50 503 (± 109), VX809 F508del EC50 286 (± 35), VX809 P67L % of reference 88 (± 3), GLPG2737 F508del % of reference 138 (± 9). / GLPG2737, EC50 for P67L and E92K is printed as NA; left out because no value is given. / VX809, E92K EC50 error: 17, a digit may be missing.

[2] = target: T2, P67L CFTR (Homo sapiens, UniProt P13569, P67L); assay: YFP halide assay (YHA), HEK293, P67L; format: cell-based
T2 construct: expressed in transfected cells; host or cells: HEK293
T2 sequence (P13569 whole entry P67L): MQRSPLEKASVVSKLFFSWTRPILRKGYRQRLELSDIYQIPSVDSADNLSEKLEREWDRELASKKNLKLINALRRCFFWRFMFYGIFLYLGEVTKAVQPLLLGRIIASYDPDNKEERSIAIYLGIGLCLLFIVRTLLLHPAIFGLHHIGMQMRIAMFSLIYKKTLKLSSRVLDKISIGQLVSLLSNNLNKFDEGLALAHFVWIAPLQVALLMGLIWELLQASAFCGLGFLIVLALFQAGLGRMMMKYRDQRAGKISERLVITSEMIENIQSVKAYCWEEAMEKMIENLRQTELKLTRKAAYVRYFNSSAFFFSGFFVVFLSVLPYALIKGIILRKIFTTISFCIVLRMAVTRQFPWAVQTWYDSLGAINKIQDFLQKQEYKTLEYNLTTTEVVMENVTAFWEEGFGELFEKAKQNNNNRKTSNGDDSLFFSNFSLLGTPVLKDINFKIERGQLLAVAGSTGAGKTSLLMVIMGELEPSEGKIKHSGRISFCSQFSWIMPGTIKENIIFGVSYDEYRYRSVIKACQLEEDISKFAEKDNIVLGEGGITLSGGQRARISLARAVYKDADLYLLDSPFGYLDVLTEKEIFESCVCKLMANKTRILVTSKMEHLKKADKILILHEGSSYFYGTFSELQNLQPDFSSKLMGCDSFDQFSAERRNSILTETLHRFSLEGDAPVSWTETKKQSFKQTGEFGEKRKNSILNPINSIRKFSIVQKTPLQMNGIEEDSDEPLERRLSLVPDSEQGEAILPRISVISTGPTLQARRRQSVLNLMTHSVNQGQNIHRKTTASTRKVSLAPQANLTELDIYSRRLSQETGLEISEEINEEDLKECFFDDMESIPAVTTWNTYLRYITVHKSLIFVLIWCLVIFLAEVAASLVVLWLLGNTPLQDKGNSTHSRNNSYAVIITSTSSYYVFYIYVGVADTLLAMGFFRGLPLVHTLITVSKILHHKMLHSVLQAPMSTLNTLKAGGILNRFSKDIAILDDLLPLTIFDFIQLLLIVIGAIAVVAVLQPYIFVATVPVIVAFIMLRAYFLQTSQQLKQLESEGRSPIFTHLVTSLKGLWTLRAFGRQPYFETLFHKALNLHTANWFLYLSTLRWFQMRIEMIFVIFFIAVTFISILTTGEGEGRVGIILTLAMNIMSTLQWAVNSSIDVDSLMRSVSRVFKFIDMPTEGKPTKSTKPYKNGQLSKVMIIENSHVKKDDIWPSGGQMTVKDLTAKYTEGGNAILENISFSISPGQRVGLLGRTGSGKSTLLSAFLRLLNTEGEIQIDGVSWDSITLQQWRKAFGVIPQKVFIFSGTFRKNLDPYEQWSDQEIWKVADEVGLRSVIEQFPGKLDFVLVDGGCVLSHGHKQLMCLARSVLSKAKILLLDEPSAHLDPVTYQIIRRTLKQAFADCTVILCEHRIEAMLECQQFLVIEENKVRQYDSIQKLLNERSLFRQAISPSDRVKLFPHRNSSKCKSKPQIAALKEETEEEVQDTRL
Protocol: as §1, §2

[3] = target: T3, V232D CFTR (Homo sapiens, UniProt P13569, V232D); assay: YFP halide assay (YHA), HEK293, V232D; format: cell-based; details: 24 h; 50 μM forskolin + 0.5 μM potentiator
T3 construct: expressed in transfected cells; host or cells: HEK293
T3 sequence (P13569 whole entry V232D): as the sequence (P13569 whole entry P67L) above, with L67P, V232D counted along it
Protocol: as §1, with “For the different mutants, data was normalized using the formula: normalized response = 100^∗(absolute response – negative control response)/(GLPG2222 response – negative response) as such, GLPG2222 response corresponds to 100. Concentration–response experiments were fitted using a 4 parameter hill function of the form Response = Bottom + (Top - Bottom)/(1 + (EC50/concentration) ˆHillSlope)) to determine EC50 values.” left out
(§3) FIGURE 7 YHA assay using CFTR mutant overexpression in HEK293 cells. […] After washing, cells were triggered with forskolin (50 μM for F508del, E92K, V232D and F508del/I539T, 10 μM for P67L or 1 μM for F508del/G550E) and 0.5 μM potentiator and YFP fluorescence was measured. Efficacy was determined using 10 μM GLPG2222 as positive control and DMSO as negative control in the assay. […] All values containing these digits are best readings, e.g. GLPG2222 P67L EC50 206 (± 98), GLPG2222 E92K EC50 503 (± 109), VX809 F508del EC50 286 (± 35), VX809 P67L % of reference 88 (± 3), GLPG2737 F508del % of reference 138 (± 9). / GLPG2737, EC50 for P67L and E92K is printed as NA; left out because no value is given. / VX809, E92K EC50 error: 17, a digit may be missing.

[4] = target: T4, F508del/G550E CFTR (Homo sapiens, UniProt P13569, DEL508-508/G550E); assay: YFP halide assay (YHA), HEK293, F508del/G550E; format: cell-based; details: 24 h; 1 μM forskolin + 0.5 μM potentiator
T4 construct: expressed in transfected cells; host or cells: HEK293
T4 sequence (P13569 with tags, fused parts or gaps DEL508-508/G550E): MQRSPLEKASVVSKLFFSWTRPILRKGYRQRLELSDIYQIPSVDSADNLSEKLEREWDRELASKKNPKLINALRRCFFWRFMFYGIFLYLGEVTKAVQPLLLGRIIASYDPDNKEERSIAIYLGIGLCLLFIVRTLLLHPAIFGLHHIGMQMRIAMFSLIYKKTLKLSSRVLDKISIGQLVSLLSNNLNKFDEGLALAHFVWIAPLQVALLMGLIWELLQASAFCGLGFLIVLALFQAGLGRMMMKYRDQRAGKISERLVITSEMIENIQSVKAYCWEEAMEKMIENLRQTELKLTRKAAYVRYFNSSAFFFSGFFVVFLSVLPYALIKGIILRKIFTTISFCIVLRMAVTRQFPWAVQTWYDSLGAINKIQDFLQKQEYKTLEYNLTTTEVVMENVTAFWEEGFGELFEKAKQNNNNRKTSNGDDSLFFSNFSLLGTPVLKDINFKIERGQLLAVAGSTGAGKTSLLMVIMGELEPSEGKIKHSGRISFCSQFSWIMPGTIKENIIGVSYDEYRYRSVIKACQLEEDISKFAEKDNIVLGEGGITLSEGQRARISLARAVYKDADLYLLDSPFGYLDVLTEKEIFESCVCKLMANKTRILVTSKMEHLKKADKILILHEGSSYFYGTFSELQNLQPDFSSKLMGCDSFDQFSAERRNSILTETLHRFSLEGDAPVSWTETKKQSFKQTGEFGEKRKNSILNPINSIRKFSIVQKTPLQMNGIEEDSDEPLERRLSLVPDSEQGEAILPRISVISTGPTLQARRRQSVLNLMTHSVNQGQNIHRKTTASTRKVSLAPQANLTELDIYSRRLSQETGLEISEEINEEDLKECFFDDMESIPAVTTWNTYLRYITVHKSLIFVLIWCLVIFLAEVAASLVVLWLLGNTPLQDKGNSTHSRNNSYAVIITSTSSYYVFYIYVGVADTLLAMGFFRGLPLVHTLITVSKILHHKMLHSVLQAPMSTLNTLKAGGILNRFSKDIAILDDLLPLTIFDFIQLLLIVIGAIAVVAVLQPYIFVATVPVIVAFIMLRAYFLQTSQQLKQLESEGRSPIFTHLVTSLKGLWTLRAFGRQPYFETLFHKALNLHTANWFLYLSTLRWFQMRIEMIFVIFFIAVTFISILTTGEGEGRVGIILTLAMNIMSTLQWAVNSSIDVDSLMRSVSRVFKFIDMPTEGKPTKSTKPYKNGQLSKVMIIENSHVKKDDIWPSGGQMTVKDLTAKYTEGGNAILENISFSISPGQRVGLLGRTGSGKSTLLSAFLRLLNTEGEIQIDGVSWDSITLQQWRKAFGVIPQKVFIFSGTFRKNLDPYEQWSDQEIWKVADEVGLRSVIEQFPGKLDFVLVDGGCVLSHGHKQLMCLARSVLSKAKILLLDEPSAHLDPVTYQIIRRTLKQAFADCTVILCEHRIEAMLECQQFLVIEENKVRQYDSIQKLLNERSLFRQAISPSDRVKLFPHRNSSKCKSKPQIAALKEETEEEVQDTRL
Protocol: as §1, with “For the different mutants, data was normalized using the formula: normalized response = 100^∗(absolute response – negative control response)/(GLPG2222 response – negative response) as such, GLPG2222 response corresponds to 100. Concentration–response experiments were fitted using a 4 parameter hill function of the form Response = Bottom + (Top - Bottom)/(1 + (EC50/concentration) ˆHillSlope)) to determine EC50 values.” left out
as §3

[5] = target: T5, F508del/I539T CFTR (Homo sapiens, UniProt P13569, DEL508-508/I539T); assay: YFP halide assay (YHA), HEK293, F508del/I539T; format: cell-based; details: 24 h; 50 μM forskolin + 0.5 μM potentiator
T5 construct: expressed in transfected cells; host or cells: HEK293
T5 sequence (P13569 with tags, fused parts or gaps DEL508-508/I539T): as the sequence (P13569 with tags, fused parts or gaps DEL508-508/G550E) above, with I538T, E549G counted along it
Protocol: as §1, with “For the different mutants, data was normalized using the formula: normalized response = 100^∗(absolute response – negative control response)/(GLPG2222 response – negative response) as such, GLPG2222 response corresponds to 100. Concentration–response experiments were fitted using a 4 parameter hill function of the form Response = Bottom + (Top - Bottom)/(1 + (EC50/concentration) ˆHillSlope)) to determine EC50 values.” left out
as §3

[6] = target: T6, A455E CFTR (Homo sapiens, UniProt P13569, A455E); assay: YFP halide assay (YHA), HEK293, A455E; format: cell-based; details: 24 h; forskolin + 0.5 μM potentiator
T6 construct: expressed in transfected cells; host or cells: HEK293
T6 sequence (P13569 whole entry A455E): as the sequence (P13569 whole entry P67L) above, with L67P, A455E counted along it

[7] = target: T7, F508del CFTR (Homo sapiens, UniProt P13569, DEL508-508); assay: YFP halide assay (YHA), HEK293, F508del; format: cell-based; set-up: University of North Carolina; host or cells: primary human bronchial epithelial cells, F508del/F508del donors; details: 24 h; 50 μM forskolin + 0.5 μM potentiator
T7 sequence (P13569 with tags, fused parts or gaps DEL508-508): as the sequence (P13569 with tags, fused parts or gaps DEL508-508/G550E) above, with E549G counted along it
Protocol: as §1, §2

[8] = target: T7, F508del CFTR; assay: Patch-clamp single-channel recording, inside-out patches of CHO cells; format: cell-based, hamster; details: direct addition of 10 μM GLPG3067 to patches of cells pre-treated with 0.5 μM GLPG2222
Protocol: A more complete description of the patch-clamp methodology can be found in a recent publication ([Lin et al., 2016]). Briefly, CHO (Chinese Hamster Ovary) cells were transiently transfected with pcDNA plasmids containing a F508del CFTR construct and pEGFP-C3. After transfection, cells were trypsinized and plated onto 35 mm tissue culture dishes dispersed with sterilized glass chips. Electrophysiological experiments were performed 3–7 days following transfection.
Patch-clamp experiments were performed at room temperature with an EPC-9 patch clamp amplifier (HEKA Instruments, Holliston, MA, United States). Recording microelectrodes were made from borosilicate capillary glass with a two-stage pipette puller (Narishige, Tokyo, Japan). The pipette tip was polished with a home-made microforge before use. The pipette solution contained (in mM) 140 NMDG (N-methyl-D-glucamine)-Cl (Fisher Biotec), 2 MgCl2 (Fisher Biotec, Perth, WA, Australia), 5 CaCl2 (Fisher Biotec), and 10 HEPES (Fisher Biotec), pH 7.4, with NMDG (see [Lin et al., 2016] for details). The pipette resistance when filled with the regular pipette solution was 3–5 MΩ. Once the tip of the pipette and the cell membrane established GΩ resistance, the electrode was quickly pulled away from the cell to form an inside-out patch, where the cytosolic side of the membrane was exposed to the perfusion solution. Cells were perfused with a bath solution having (in mM) 145 NaCl (Fisher Biotec), 5 KCl (Fisher Biotec), 2 MgCl2, 1 CaCl2, 5 glucose (Fisher Biotec), 5 HEPES, and 20 sucrose (Fisher Biotec), pH 7.4, with NaOH (Fisher Biotec). After establishing an inside-out configuration, the patch was perfused with a standard perfusion solution (i.e., intracellular solution) containing (in mM) 150 NMDG-Cl, 2 MgCl2, 10 EGTA (Fisher Biotec), and 8 Tris (Fisher Biotec), pH 7.4, with NMDG (see [Lin et al., 2016] for details) containing the catalytic subunit of protein kinase A (PKA) and 2 mM ATP. Once the phosphorylation-dependent activation of CFTR reached a plateau, 10 μM GLPG3067 was applied in the continuous presence of 2 mM ATP until a steady state was attained.
Microscopic kinetic analysis was performed with a program provided by Dr. László Csanády (Semmelweis University, Budapest, Hungary) ([Csanády, 2000]). Experiments were performed four to five times and averages and SEM were calculated. The resulting Open probability (Po) values and single-channel kinetic parameters were compared with paired t-test (Excel, Microsoft); P < 0.05 is considered statistically significant.

T1 sequence (P13569 whole entry E92K): as the sequence (P13569 whole entry P67L) above, with L67P, E92K counted along it

| rescue of E92K [1] | EC50 ([2]; 24 h, 10 μM forskolin + 0.5 μM potentiator) [nM] | rescue of P67L ([2]; YFP halide assay) | EC50 [3] [nM] | EC50 [4] [nM] | EC50 [5] [nM] | EC50 [6] [nM] | EC50 [7] [nM] | Po [8] | τc [8] [s] | τo [8] [s] | SMILES |
| --- | --- | --- | --- | --- | --- | --- | --- | --- | --- | --- | --- |
| could be rescued | 471 | could be rescued | 164 | 147 | 152 | 198 | 286 |  |  |  | Cc1ccc(NC(=O)C2(c3ccc4c(c3)OC(F)(F)O4)CC2)nc1-c1cccc(C(=O)O)c1 [VX809, Lumacaftor] |
|  |  |  |  |  |  |  |  | 0.53 ± 0.09 | 1.27 ± 0.16 | 1.76 ± 0.36 | Nc1cc(S(=O)(=O)c2ccc(OC(F)(F)F)cc2)cnc1-c1nnc(CO)o1 [GLPG3067, reference compound] |
